From patent US20220396567A1, “SUBSTITUTED PYRIMIDINE FOR THE TREATMENT AND PROPHYLAXIS OF HEPATITIS B VIRUS INFECTION” (Hoffmann-La Roche Inc., priority 2019, published 2022) come the findings set out here.

In this assay the test system is HBV. Description: Cryopreserved primary human hepatocytes (PHH) HBV infection assay, extracellular HBsAg by CLIA. Type of assay: cell-based. Particulars: Hepatitis B virus, Hepatocyte, 216 h; HBV-infected cryopreserved PHH; extracellular HBsAg at 9 days post-compound treatment; 4 parameter logistic curve fit. On the procedure: This assay is used to confirm the anti-HBV effect of the compounds in HBV PHH infection assay. Cryopreserved PHH (BioreclamationIVT, Lot YJM) was thawed at 37° C. and gently transferred into pre-warmed InVitroGRO HT medium (BioreclamationIVT, Cat. S03317). The mixture was centrifuged at 70 relative centrifugal force (RCF) for 3 min at RT, and the supernatant was discarded. Pre-warmed InVitroGRO CP medium (BioreclamationIVT, Cat #S03316) was added to the cell pellet to gently re-suspend cells. The cells were seeded at the density of 5.8×10^4 cells per well to collagen I coated 96-well plate (Gibco, Cat. A1142803) with the InVitroGRO CP medium. All plates were incubated at 37° C. with 5% CO2 and 85% humidity.
At 20 hrs after plating, the medium was changed to PHH culture medium (Dulbecco's Modified Eagle Medium (DMEM)/F12 (1:1) (Gibco, Cat. 11320-033), 10% fetal bovine serum (Gibco Cat. 10099141), 100 U/mL penicillin, 100 μg/mL streptomycin (Gibco, Cat. 151401-122), […] (Invitrogen Cat. PHG0311L), 20 ng/mL dexamethasone (Sigma, Cat. D4902) and 250 ng/mL human recombinant insulin (Gibco, Cat. 12585-014)). And the cells were incubated at 37° C. with 5% CO2 and 85% humidity for 4 hrs. The medium was then changed to pre-warmed PHH culture medium containing 4% polyethylene glycol (PEG) MW8000 (Sigma, Cat. P1458-50 ML) and 1% DMSO (Sigma, Cat. D2650). 5.8×10^6 genomic equivalents of HBV were added into the medium.
At 24 hrs post-infection, the cells were gently washed with PBS and refreshed with PHH culture medium supplemented with 1% DMSO, and 0.25 mg/mL Matrix gel (Corning, Cat. 356237) at 200 μL per well. All plates were immediately placed in at 37° C. CO2 incubator.
24 hrs later, serial dilutions of compounds made with DMSO were further diluted with the same culture medium (PHH culture medium supplemented with 1% DMSO and 0.25 mg/mL Matrix gel as described above) before they were added to the cells to reach desired final compound concentrations and 1% DMSO concentration. The medium containing the compounds were refreshed every three days.
At 9 days post-compound treatment, extracellular HBsAg level were measured with Chemiluminescence Immuno Assay (CLIA) kit (Autobio, HBsAg Quantitative CLIA).
HBsAg IC50 was derived from the dose-response curve using 4 parameter logistic curve fit method. The compounds of formula (I) have HBsAg IC50<20 μM, particularly <1 μM.
In the case of `N#Cc1c(NCc2ccccc2N)ncnc1-c1ccco1` [Example 31, 4-[(2-aminophenyl)methylamino]-6-(2-furyl)pyrimidine-5-carbonitrile], half-maximal inhibition (IC50) required 0.27 µM.
The value for `CC(Nc1cc(-c2ccco2)nc(N(C)C)n1)c1cccc(C(F)(F)F)c1` (stereo not shown) [Example 32, 6-(2-furyl)-N2,N2-dimethyl-N4-[1-[3-(trifluoromethyl)phenyl]ethyl]pyrimidine-2,4-diamine] was 3.49 µM.
`CN(C)c1nc(NCc2ccccc2N)cc(-c2ccco2)n1` [Example 33, N4-[(2-aminophenyl)methyl]-6-(2-furyl)-N2,N2-dimethyl-pyrimidine-2,4-diamine] registered an IC50 of 7.58 µM.
The value for `COc1nc(NC(C)c2cccc(C(F)(F)F)c2)cc(-c2ccco2)n1` (stereo not shown) [Example 34, 6-(2-furyl)-2-methoxy-N-[1-[3-(trifluoromethyl)phenyl]ethyl]pyrimidin-4-amine] was 3.49 µM; that for `COc1c(NCc2cccc(C(F)(F)F)c2)nc(N)nc1-c1ccco1` [Example 35, 6-(2-furyl)-5-methoxy-N4-[[3-(trifluoromethyl)phenyl]methyl]pyrimidine-2,4-diamine] was 7.85 µM; that for `Nc1nc(NCc2ccccc2N)cc(-c2cccs2)n1` [Example 36, N4-[(2-aminophenyl)methyl]-6-(2-thienyl)pyrimidine-2,4-diamine] was 6.62 µM.
For `Nc1nc(NCc2ccc(Cl)cc2)c(C(=O)O)c(-c2ccco2)n1` [Example 37, 2-amino-4-[(4-chlorophenyl)methylamino]-6-(2-furyl)pyrimidine-5-carboxylic Acid] the value was 2.93 µM.
For `Nc1nc(NCc2cccc(C(F)(F)F)c2)c(C(=O)O)c(-c2ccco2)n1` [Example 38, 2-amino-4-(2-furyl)-6-[[3-(trifluoromethyl)phenyl]methylamino]pyrimidine-5-carboxylic Acid] the value was 2.49 µM; for `Cc1ccccc1CNc1nc(N)nc(-c2ccco2)c1C(=O)O` [Example 39, 2-amino-4-(2-furyl)-6-(o-tolylmethylamino)pyrimidine-5-carboxylic Acid], 9.07 µM; for `COc1ccccc1CNc1nc(N)nc(-c2ccco2)c1C(=O)O` [Example 40, 2-amino-4-(2-furyl)-6-[(2-methoxyphenyl)methylamino]pyrimidine-5-carboxylic Acid], 6.67 µM.
`Nc1nc(NCC2CCCC2)c(C(=O)O)c(-c2ccco2)n1` [Example 41, 2-amino-4-(cyclopentylmethylamino)-6-(2-furyl)pyrimidine-5-carboxylic acid] showed an IC50 of 3.24 µM.
For `CN(Cc1ccccc1)c1nc(N)nc(-c2ccco2)c1C(=O)O` [Example 42, 2-amino-4-[benzyl(methyl)amino]-6-(2-furyl)pyrimidine-5-carboxylic Acid] the value was 5.27 µM; for `CN(C)c1nc(NCC2CCCC2)c(C(=O)O)c(-c2ccco2)n1` [Example 43, 4-(cyclopentylmethylamino)-2-(dimethylamino)-6-(2-furyl)pyrimidine-5-carboxylic Acid], 5.55 µM; for `CCOC(=O)c1c(NCc2c(Br)ccc(OC)c2OC)nc(N)nc1-c1ccco1` [Example 44, Ethyl 2-amino-4-[(6-bromo-2,3-dimethoxy-phenyl)methylamino]-6-(2-furyl)pyrimidine-5-carboxylate], 8.06 µM.
Compound `CCOC(=O)c1c(NCc2cccc(C(F)(F)F)c2)nc(SC)nc1-c1ccco1` [Example 45, Ethyl 4-(2-furyl)-2-methylsulfanyl-6-[[3-(trifluoromethyl)phenyl]methylamino]pyrimidine-5-carboxylate] came in with an IC50 of 8.16 µM.
The value for `COCCNc1nc(NCc2cccc(C(F)(F)F)c2)c(C(=O)O)c(-c2ccco2)n1` [Example 46, 4-(2-furyl)-2-(2-methoxyethylamino)-6-[[3-(trifluoromethyl)phenyl]methylamino]pyrimidine-5-carboxylic Acid] was 4.31 µM.
The value for `CCOC(=O)c1c(NCc2cccc(C(F)(F)F)c2)nc(N2CC3(CCC3)C2)nc1-c1ccco1` [Example 47, Ethyl 2-(2-azaspiro[3.3]heptan-2-yl)-4-(2-furyl)-6-[[3-(trifluoromethyl)phenyl]methylamino]pyrimidine-5-carboxylate] was 3.26 µM; that for `O=C(O)c1c(NCc2cccc(C(F)(F)F)c2)nc(N2CC3(CCC3)C2)nc1-c1ccco1` [Example 48, 2-(2-azaspiro[3.3]heptan-2-yl)-4-(2-furyl)-6-[[3-(trifluoromethyl)phenyl]methylamino]pyrimidine-5-carboxylic Acid] was 6.37 µM.
For `CCOC(=O)c1c(NCc2cccc(C(F)(F)F)c2)nc(NCC(C)C)nc1-c1ccco1` [Example 49, Ethyl 4-(2-furyl)-2-(isobutylamino)-6-[[3-(trifluoromethyl)phenyl]methylamino]pyrimidine-5-carboxylate] the value was 5.35 µM; for `CC(C)CNc1nc(NCc2cccc(C(F)(F)F)c2)c(C(=O)O)c(-c2ccco2)n1` [Example 50, 4-(2-furyl)-2-(isobutylamino)-6-[[3-(trifluoromethyl)phenyl]methylamino]pyrimidine-5-carboxylic Acid], 8.62 µM; for `COCCCNc1nc(NCc2cccc(C(F)(F)F)c2)c(C(=O)O)c(-c2ccco2)n1` [Example 51, 4-(2-furyl)-2-(3-methoxypropylamino)-6-[[3-(trifluoromethyl)phenyl]methylamino]pyrimidine-5-carboxylic Acid], 9.61 µM.
Regarding `Nc1nc(NCc2cccc(C(F)(F)F)c2)c(C(=O)N2CCC2)c(-c2ccco2)n1` [Example 52, [2-amino-4-(2-furyl)-6-[[3-(trifluoromethyl)phenyl]methylamino]pyrimidin-5-yl]-(azetidin-1-yl)methanone], inhibition was half-maximal at 7.94 µM (IC50).
The value for `Nc1nc(NCc2cccc(C(F)(F)F)c2)c(C(=O)N2CCCC2)c(-c2ccco2)n1` [Example 53, [2-amino-4-(2-furyl)-6-[[3-(trifluoromethyl)phenyl]methylamino]pyrimidin-5-yl]-pyrrolidin-1-yl-methanone] was 9.25 µM.
`Nc1nc(NCc2cccc(C(F)(F)F)c2)c(C(=O)N2CCCCC2)c(-c2ccco2)n1` [Example 54, [2-amino-4-(2-furyl)-6-[[3-(trifluoromethyl)phenyl]methylamino]pyrimidin-5-yl]-(1-piperidyl)methanone] yielded an IC50 of 6.59 µM.
`Nc1nc(NCc2cccc(C(F)(F)F)c2)c(C(=O)N2CCOCC2)c(-c2ccco2)n1` [Example 55, [2-amino-4-(2-furyl)-6-[[3-(trifluoromethyl)phenyl]methylamino]pyrimidin-5-yl]-morpholino-methanone]: the IC50 worked out at 10.1 µM.
The value for `CC(C)(C)OC(=O)N1CCN(C(=O)c2c(NCc3cccc(C(F)(F)F)c3)nc(N)nc2-c2ccco2)CC1` [Example 56, tert-butyl4-[2-amino-4-(2-furyl)-6-[[3-(trifluoromethyl)phenyl]methylamino]pyrimidine-5-carbonyl]piperazine-1-carboxylate] was 9.66 µM; that for `CCOC(=O)c1c(NCc2ccccc2Cl)ncnc1-c1ccco1` [Example 57, Ethyl 4-[(2-chlorophenyl)methylamino]-6-(2-furyl)pyrimidine-5-carboxylate] was 4.26 µM.
For `COCCNc1nc(NC2(c3cccc(C(F)(F)F)c3)CC2)c(C(=O)O)c(-c2ccco2)n1` [Example 58, 4-(2-furyl)-2-(2-methoxyethylamino)-6-[[1-[3-(trifluoromethyl)phenyl]cyclopropyl]amino]pyrimidine-5-carboxylic Acid] the value was 5.96 µM; for `COCCNc1nc(NCc2cccc(Cl)c2)c(C(=O)O)c(-c2ccco2)n1` [Example 59, 4-[(3-chlorophenyl)methylamino]-6-(2-furyl)-2-(2-methoxyethylamino)pyrimidine-5-carboxylic Acid], 3.71 µM.
The value for `CCNc1nc(NC2(c3cccc(C(F)(F)F)c3)CC2)c(C(=O)O)c(-c2ccco2)n1` [Example 60, 2-(ethylamino)-4-(2-furyl)-6-[[1-[3-(trifluoromethyl)phenyl]cyclopropyl]amino]pyrimidine-5-carboxylic Acid] was 6.5 µM; that for `CCOC(=O)c1c(NCc2cccc(C(F)(F)F)c2)nc(C)nc1-c1ccco1` [Example 61, Ethyl 4-(2-furyl)-2-methyl-6-[[3-(trifluoromethyl)phenyl]methylamino]pyrimidine-5-carboxylate] was 7.38 µM.
